From patent publication US8178668B2, “2-aminopyridine kinase inhibitors” (OSI Pharmaceuticals, LLC, priority 2008, dated 2012)
pIC50: −log10 of the molar value. Counter-ions that a name gives are not always drawn.

Key:
[1] = target: MET (human) (Homo sapiens, UniProt P08581); assay: MET kinase AlphaScreen assay (Km of ATP); format: biochemical; details: ATP at Km; at least duplicate experiments
Protocol: (§1) Person skilled in the art will appreciate that a variety of assay formats may be used to determine the activity of the compounds of this invention. For example, AlphaScreen (Amplified Luminescent Proximity Homogeneous Assay) technology was used with the kinases described below. Assay ATP concentrations for individual kinases are included in the text.
MET (human)—Km of ATP: MET assay is performed in a 384 well assay containing 200 ng/μL biotinylated poly(Glu,Tyr), 0.334 mM vanadate, desired concentration of ATP optimized for the enzyme in assay buffer (50 mM HEPES (pH=7.4), 5 mM MgCl2, 5 mM MnCl2, and 1% glycerol). Desired compound is added in a final concentration of 1% DMSO with control being vehicle of DMSO alone. MET is diluted to the optimized concentration (optimized on a lot-by-lot basis) in an enzyme diluent buffer (50 mM Tris pH=7.4, 1% glycerol, 0.03% Brij35, 0.24 mM EGTA, 1 mM DTT, and 0.003% BSA). Enzyme is added to initiate the reaction and incubated for 60 min at RT. In subdued light, appropriate amount of PT66 donor and acceptor beads (diluted 1:260 from manufacturer's provision in a 25 mM Tris HCl (pH=7.5), 400 mM NaCl, 100 mM EDTA, 0.3% BSA buffer) are added to the wells. The plates, incubated for 1 h, are read on an AlphaQuest plate reader

[2] = target: RON (human) (Homo sapiens, UniProt Q04912); assay: RON kinase AlphaScreen assay (Km of ATP); format: biochemical; details: ATP at Km; at least duplicate experiments
RON (human), sequence (Q04912 25-1400): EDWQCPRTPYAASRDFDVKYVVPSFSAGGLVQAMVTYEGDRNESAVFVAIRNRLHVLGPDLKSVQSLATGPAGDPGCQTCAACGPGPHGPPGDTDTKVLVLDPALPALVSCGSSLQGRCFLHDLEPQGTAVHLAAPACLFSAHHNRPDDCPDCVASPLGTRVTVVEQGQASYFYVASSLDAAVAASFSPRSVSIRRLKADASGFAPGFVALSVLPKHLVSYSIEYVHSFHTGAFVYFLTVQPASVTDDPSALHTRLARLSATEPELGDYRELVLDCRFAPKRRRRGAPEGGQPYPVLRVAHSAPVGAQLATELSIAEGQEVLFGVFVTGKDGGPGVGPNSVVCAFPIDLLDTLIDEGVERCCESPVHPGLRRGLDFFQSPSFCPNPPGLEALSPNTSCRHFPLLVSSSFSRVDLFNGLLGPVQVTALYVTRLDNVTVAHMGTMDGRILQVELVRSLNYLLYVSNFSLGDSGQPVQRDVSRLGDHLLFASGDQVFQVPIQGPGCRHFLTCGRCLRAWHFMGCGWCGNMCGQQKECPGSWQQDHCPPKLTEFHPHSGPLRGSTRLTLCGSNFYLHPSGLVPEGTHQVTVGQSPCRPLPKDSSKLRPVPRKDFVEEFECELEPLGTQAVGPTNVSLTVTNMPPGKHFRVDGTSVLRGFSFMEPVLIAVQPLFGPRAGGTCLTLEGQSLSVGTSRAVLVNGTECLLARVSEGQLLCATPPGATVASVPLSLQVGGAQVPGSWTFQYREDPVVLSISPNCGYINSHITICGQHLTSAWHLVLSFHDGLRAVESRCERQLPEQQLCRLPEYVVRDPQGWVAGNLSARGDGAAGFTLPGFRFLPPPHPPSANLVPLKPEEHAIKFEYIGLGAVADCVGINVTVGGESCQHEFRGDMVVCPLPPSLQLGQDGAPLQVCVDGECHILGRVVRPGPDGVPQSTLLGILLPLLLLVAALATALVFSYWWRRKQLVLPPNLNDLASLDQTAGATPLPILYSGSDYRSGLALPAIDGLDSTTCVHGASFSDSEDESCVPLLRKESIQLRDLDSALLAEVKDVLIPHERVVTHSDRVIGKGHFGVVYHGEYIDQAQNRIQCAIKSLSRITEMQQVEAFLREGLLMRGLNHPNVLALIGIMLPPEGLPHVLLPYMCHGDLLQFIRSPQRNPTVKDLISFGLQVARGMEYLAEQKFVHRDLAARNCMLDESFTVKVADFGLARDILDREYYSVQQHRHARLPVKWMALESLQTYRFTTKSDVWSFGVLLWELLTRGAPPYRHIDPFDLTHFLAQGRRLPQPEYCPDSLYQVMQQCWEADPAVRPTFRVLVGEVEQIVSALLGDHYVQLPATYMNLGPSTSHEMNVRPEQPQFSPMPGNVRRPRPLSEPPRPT
Protocol: as §1
RON (human)—Km of ATP: RON assay is performed in a 384 well assay containing 200 ng/μL biotinylated poly(Glu,Tyr), 0.334 mM vanadate, desired concentration of ATP optimized for the enzyme in assay buffer (50 mM HEPES (pH=7.4), 12.5 mM MgCl2 and 1% glycerol). Desired compound is added in a final concentration of 1% DMSO with control being vehicle of DMSO alone. RON is diluted to the optimized (on a lot-by-lot basis) concentration in an enzyme diluent buffer (50 mM HEPES pH=7.4, 12.5 mM MgCl2 and 1% glycerol, 0.03% Brij35, 0.3 mM EGTA, lmM DTT, and 0.003% BSA). Enzyme is added to initiate the reaction and incubated for 30 min at RT. In subdued light, appropriate amount of PT66 donor and acceptor beads (diluted 1:260 from manufacturer's provision in a 25 mM Tris HCl (pH=7.5), 200 mM NaCl, 100 mM EDTA, 0.3% BSA buffer) are added to the wells. The plates, incubated for 1 h, are read on an AlphaQuest plate reader.

MET (human), sequence (P08581 25-1390): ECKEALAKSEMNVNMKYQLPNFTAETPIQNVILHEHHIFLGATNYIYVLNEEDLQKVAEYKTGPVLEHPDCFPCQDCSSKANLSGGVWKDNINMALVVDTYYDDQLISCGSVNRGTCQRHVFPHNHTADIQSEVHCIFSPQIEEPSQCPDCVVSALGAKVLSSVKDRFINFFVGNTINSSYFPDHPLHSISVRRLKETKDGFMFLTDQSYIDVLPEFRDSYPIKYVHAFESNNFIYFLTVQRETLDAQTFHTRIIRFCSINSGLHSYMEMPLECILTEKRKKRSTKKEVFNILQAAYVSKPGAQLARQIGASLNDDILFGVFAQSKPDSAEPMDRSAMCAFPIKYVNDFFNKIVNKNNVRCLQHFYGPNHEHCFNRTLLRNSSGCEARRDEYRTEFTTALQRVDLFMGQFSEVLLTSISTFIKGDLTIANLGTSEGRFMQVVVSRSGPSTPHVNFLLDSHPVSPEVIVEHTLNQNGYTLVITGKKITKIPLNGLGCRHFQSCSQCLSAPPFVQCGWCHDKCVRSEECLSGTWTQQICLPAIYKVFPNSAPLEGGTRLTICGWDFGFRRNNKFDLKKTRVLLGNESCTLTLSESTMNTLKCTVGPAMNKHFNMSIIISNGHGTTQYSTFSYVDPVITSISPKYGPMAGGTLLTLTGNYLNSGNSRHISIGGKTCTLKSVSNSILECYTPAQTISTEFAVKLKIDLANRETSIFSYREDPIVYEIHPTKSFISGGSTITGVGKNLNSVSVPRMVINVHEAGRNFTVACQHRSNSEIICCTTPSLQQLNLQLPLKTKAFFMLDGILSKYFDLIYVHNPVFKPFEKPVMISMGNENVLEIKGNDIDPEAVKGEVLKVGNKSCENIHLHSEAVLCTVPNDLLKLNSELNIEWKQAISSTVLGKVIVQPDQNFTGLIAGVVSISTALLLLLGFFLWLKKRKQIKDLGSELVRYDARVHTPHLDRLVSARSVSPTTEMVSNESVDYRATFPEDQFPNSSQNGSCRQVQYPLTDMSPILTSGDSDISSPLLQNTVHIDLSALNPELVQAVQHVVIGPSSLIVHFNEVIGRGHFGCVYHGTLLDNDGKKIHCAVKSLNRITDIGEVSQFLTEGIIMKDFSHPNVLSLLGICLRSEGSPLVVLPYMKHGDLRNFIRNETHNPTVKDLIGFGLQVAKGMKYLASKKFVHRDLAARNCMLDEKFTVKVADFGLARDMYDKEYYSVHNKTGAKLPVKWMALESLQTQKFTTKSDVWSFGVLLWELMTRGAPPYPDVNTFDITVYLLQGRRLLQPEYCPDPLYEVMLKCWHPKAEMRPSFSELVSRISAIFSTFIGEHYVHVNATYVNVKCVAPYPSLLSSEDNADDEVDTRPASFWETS

| SMILES | pIC50 [1] | pIC50 [2] |
| --- | --- | --- |
| Nc1ncc(-c2cnn(C3CCNCC3)c2)cc1-c1cc2c(-c3cn[nH]c3)ccc(F)c2cn1 [Example 51, 3-[8-Fluoro-5-(1H-pyrazol-4-yl)-isoquinolin-3-yl]-5-(1-piperidin-4-yl-1H-pyrazol-4-yl)-pyridin-2-ylamine trihydrochloride] | ≥ 7.00 | ≥ 7.00 |
| Cn1cc(-c2ccc(F)c3cnc(-c4cc(-c5cnn(C6CCNCC6)c5)cnc4N)cc23)cn1 [Example 52, 3-[8-Fluoro-5-(1-methyl-1H-pyrazol-4-yl)-isoquinolin-3-yl]-5-(1-piperidin-4-yl-1H-pyrazol-4-yl)-pyridin-2-ylamine trihydrochloride] | ≥ 7.00 | ≥ 7.00 |
| Nc1ncc(-c2cnn(C3CCNCC3)c2)cc1-c1cc2c(-c3ccc[nH]3)ccc(F)c2cn1 [Example 53, 3-[8-Fluoro-5-(1H-pyrrol-2-yl)-isoquinolin-3-yl]-5-(1-piperidin-4-yl-1H-pyrazol-4-yl)-pyridin-2-ylamine] | 6.00 to 7.00 | 6.00 to 7.00 |
| Nc1ncc(-c2cnn(C3CCNCC3)c2)cc1-c1cc2c(-c3cccnc3)ccc(F)c2cn1 [Example 54, 3-(8-Fluoro-5-pyridin-3-ylisoquinolin-3-yl)-5-(1-piperidin-4-yl-1H-pyrazol-4-yl)-pyridin-2-ylamine trihydrochloride pyridin-2-ylamine trihydrochloride] | 6.00 to 7.00 | 4.70 to 6.00 |
| Nc1ncc(-c2cnn(C3CCNCC3)c2)cc1-c1cc2c(-c3nccs3)ccc(F)c2cn1 [Example 55, 3-(8-Fluoro-5-thiazol-2-ylisoquinolin-3-yl)-5-(1-piperidin-4-yl-1H-pyrazol-4-yl)-pyridin-2-ylamine trihydrochloride] | 6.00 to 7.00 | 4.70 to 6.00 |
| Nc1ncc(-c2cnn(C3CCNCC3)c2)cc1-c1cc2c(-c3cncs3)ccc(F)c2cn1 [Example 56, 3-(8-Fluoro-5-thiazol-5-ylisoquinolin-3-yl)-5-(1-piperidin-4-yl-1H-pyrazol-4-yl)-pyridin-2-ylamine trihydrochloride] | 6.00 to 7.00 | 6.00 to 7.00 |
| Nc1ncc(-c2cnn(C3CCN(C=O)CC3)c2)cc1-c1cc2c(Cl)ccc(F)c2cn1 [Example 57, 4-4-[6-Amino-5-(5-chloro-8-fluoroisoquinolin-3-yl)-pyridin-3-yl]-pyrazol-1-ylpiperidine-1-carbaldehyde] | 6.00 to 7.00 | 4.70 to 6.00 |
| CN1CCC(n2cc(-c3cnc(N)c(-c4cc5c(Cl)ccc(F)c5cn4)c3)cn2)CC1 [Example 58, 3-(5-Chloro-8-fluoroisoquinolin-3-yl)-5-[1-(1-methylpiperidin-4-yl)-1H-pyrazol-4-yl]-pyridin-2-ylamine] | 6.00 to 7.00 | 6.00 to 7.00 |

Further lines, results first:

| pIC50 [1] | pIC50 [2] | SMILES |
| --- | --- | --- |
| 4.70 to 6.00 | 4.70 to 6.00 | CN1CCN(c2ncc(-c3cnc(N)c(-c4cc5c(Cl)ccc(F)c5cn4)c3)s2)CC1 [Example 60, 3-(5-Chloro-8-fluoroisoquinolin-3-yl)-5-[2-(4-methylpiperazin-1-yl)-thiazol-5-yl]-pyridin-2-ylamine trihydrochloride] |
| < 4.70 | < 4.70 | Nc1ncc(-c2cnc(N3CCOCC3)s2)cc1-c1cc2c(Cl)ccc(F)c2cn1 [Example 61, 3-(5-Chloro-8-fluoroisoquinolin-3-yl)-5-(2-morpholin-4-ylthiazol-5-yl)-pyridin-2-ylamine] |
| 6.00 to 7.00 | 6.00 to 7.00 | Nc1ncc(-c2cnn([C@@H]3CCNC3)c2)cc1-c1cc2c(Cl)ccc(F)c2cn1 [Example 62, 3-(5-Chloro-8-fluoroisoquinolin-3-yl)-5-((R)-1-pyrrolidin-3-yl-1H-pyrazol-4-yl)-pyridin-2-ylamine trihydrochloride] |
| 6.00 to 7.00 | 6.00 to 7.00 | Nc1ncc(-c2cnn([C@H]3CCNC3)c2)cc1-c1cc2c(Cl)ccc(F)c2cn1 [Example 63, 3-(5-Chloro-8-fluoroisoquinolin-3-yl)-5-((S)-1-pyrrolidin-3-yl-1H-pyrazol-4-yl)-pyridin-2-ylamine trihydrochloride] |
